The source of these data is ChEMBL document CHEMBL1201862, “PubChem BioAssay data set” (2004).

Calls of active or inactive are those of the source. Some results are limits rather than exact numbers.

Test [1] concerns the target Intestinal-type alkaline phosphatase (Homo sapiens, UniProt P09923). The experiment in a line: human intestinal alkaline phosphatase activators, dose response, biochemical, luminescence, uHTS hits (AID 463120). The class given is functional.
Test [2] deals with Glyceraldehyde-3-phosphate dehydrogenase (Homo sapiens, UniProt P04406).
The target in test [3] is T1, Alkaline phosphatase, tissue-nonspecific isozyme (Homo sapiens, UniProt P05186).
T1 sequence (P05186 whole entry): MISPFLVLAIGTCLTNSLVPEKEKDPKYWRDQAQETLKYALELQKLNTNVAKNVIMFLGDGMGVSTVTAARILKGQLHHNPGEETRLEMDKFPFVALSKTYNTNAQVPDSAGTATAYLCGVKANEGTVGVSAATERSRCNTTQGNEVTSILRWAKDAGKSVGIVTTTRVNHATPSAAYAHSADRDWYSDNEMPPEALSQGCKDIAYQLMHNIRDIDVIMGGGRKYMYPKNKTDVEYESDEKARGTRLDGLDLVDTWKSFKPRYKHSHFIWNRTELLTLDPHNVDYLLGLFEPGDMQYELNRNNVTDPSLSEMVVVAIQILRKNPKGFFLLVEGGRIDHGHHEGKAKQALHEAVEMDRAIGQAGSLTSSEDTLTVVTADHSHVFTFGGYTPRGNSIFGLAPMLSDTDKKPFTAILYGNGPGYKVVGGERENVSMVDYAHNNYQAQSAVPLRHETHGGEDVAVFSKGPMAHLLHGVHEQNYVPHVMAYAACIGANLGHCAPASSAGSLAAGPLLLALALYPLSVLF
Kind of test: human TNAP enzyme inhibitors, SAR follow-up, biochemical, luminescent, dose response (AID 1056).

A short description of test [4]: cells. Format: functional, cell-based.
Test [5] deals with T2, Short transient receptor potential channel 4 (Mus musculus, UniProt Q9QUQ5).
T2 sequence (Q9QUQ5 whole entry): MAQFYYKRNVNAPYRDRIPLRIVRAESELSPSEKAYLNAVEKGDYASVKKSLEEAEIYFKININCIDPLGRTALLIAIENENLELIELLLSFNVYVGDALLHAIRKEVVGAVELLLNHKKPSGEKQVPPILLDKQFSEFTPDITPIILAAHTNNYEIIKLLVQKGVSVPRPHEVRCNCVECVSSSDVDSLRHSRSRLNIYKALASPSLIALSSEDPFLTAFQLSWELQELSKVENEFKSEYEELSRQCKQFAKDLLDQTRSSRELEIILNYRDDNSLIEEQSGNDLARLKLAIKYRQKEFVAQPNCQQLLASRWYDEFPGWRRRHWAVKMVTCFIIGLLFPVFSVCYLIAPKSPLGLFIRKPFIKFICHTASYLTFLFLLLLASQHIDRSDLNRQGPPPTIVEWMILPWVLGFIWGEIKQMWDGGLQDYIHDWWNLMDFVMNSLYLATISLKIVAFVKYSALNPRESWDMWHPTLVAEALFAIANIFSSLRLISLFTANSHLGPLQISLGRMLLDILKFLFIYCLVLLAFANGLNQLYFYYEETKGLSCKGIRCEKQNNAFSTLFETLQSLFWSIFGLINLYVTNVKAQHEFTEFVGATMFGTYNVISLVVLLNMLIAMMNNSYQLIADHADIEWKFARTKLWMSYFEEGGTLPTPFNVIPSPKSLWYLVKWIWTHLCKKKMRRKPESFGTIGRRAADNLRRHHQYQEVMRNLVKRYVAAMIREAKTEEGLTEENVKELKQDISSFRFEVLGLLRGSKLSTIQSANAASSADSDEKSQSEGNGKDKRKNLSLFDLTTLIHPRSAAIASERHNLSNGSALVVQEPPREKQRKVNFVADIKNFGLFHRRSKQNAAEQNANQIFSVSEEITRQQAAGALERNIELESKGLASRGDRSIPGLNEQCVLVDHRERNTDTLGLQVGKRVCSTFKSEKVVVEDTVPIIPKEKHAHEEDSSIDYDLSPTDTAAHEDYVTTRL
Kind of test: mouse TRPC4 channel activators, dose response, cell-based, HEK293 TRPC4/mu-opioid, Fluo-4 calcium (AID 434937). Format: functional.

Test [6] is described as follows: cells. Format: functional, cell-based. The source holds these as a separate data set.
Test [7] can be described thus: cells.
In test [8] the target is Protein-tyrosine kinase 2-beta (Homo sapiens, UniProt Q14289).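 Further: potency of inhibitors of PYK2 kinase phosphorylation of poly-GT substrate.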
For another test, the target named is Major prion protein (Homo sapiens, UniProt P04156). The class given is functional, cell-based.
The next test deals with T3, X-box-binding protein 1 (Homo sapiens, UniProt P17861).
T3 sequence (P17861 whole entry): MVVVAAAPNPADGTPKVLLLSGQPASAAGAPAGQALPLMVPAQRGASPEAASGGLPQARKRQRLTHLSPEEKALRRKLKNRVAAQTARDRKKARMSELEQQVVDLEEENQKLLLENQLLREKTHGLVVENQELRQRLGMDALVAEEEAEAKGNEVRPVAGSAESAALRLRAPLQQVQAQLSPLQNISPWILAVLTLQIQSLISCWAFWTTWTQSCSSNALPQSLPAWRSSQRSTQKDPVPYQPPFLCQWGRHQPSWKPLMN
The class given is functional, Cricetulus griseus.

A short description of test [9]: Luminescence Cell-Based Dose Retest to Confirm Inhibitors of Cancer Stem Cells. [Related pubchem assays (depositor defined):AID2717, AID2721]. The class given is functional. As to conditions: Homo sapiens.
Test [10] is described as follows: HepG2 cell cytotoxicity, dose response, cytotoxicity control for Shn3 inhibitor project, CellTiter-Glo, cherry-picked (AID 624134). Format: functional, cell-based.
Test [11] deals with T4, Microphthalmia-associated transcription factor (Homo sapiens, UniProt O75030).
T4 sequence (O75030 whole entry): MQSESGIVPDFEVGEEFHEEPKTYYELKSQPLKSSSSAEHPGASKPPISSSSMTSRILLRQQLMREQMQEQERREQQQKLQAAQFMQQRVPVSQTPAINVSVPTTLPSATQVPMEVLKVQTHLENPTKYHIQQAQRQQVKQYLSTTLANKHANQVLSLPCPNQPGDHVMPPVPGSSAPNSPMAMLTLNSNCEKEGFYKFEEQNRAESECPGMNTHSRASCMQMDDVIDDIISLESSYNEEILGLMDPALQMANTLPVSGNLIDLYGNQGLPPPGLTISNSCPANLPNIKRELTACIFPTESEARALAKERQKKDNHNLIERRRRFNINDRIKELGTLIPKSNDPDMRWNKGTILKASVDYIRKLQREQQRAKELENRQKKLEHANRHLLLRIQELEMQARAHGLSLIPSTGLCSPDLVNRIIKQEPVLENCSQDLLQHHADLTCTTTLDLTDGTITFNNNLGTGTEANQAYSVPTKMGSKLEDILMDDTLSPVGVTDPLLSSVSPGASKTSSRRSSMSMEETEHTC
Kind of test: TRPM1 promoter luciferase signal decrease, dose response, MITF inhibitor project, cell-based, SK-MEL-5, cherry-picked, set 3 (AID 493073).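 Further: SK-MEL-5 melanoma cells with luciferase driven by the MITF target TRPM1 promoter.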 The class given is functional.

A short description of test [12]: growth suppression of beta-catenin-knockout colon cells, dose response, cell-based, HCT116, human colon tumor (AID 1045).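 Further: HCT116 colon tumor cells with beta catenin knocked out; cells exposed to compound for 60 hours.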 The class given is functional.
Test [13] is described as follows: Shn3 3'UTR reporter inhibitors, dose response, cell-based, Clone20 osteoblasts, firefly luciferase, cherry-picked (AID 624132).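 Further: firefly luciferase luminescence from reporter carrying the Shn3 3'UTR in osteoblasts.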 Format: functional.
Test [14] in a line: control 3'UTR Renilla luciferase suppression, dose response, counter-screen for Shn3 inhibitor project, cell-based, Clone20-Shn3RL, cherry-picked (AID 624133). Format: functional.
Test [15] is described as follows: growth suppression of PTEN-null colon cells, dose response, cell-based, HCT116 PTEN knockout (AID 1047).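 Further: HCT116 colon tumor cells with PTEN knocked out; cells exposed to compound for 60 hours before readout; potency for loss of cell viability measured by luminescence.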 Format: functional.
Test [16] is described as follows: Counterscreen for IDE inhibitors: Luminescence-based cell-based high throughput dose response assay to identify compounds that are cytotoxic to HEK cells. [Related pubchem assays: 434962 (Primary screen (IDE inhibitors in singlicate)), 449730 (Counterscreen (Cytotoxicity in triplicate)), 435028 (Confirmation (IDE inhibitors in triplicate)) …. Format: functional. As to conditions: HEK293.

A further test concerns the target T5, Insulin-degrading enzyme (Homo sapiens, UniProt P14735).
T5 sequence (P14735 whole entry): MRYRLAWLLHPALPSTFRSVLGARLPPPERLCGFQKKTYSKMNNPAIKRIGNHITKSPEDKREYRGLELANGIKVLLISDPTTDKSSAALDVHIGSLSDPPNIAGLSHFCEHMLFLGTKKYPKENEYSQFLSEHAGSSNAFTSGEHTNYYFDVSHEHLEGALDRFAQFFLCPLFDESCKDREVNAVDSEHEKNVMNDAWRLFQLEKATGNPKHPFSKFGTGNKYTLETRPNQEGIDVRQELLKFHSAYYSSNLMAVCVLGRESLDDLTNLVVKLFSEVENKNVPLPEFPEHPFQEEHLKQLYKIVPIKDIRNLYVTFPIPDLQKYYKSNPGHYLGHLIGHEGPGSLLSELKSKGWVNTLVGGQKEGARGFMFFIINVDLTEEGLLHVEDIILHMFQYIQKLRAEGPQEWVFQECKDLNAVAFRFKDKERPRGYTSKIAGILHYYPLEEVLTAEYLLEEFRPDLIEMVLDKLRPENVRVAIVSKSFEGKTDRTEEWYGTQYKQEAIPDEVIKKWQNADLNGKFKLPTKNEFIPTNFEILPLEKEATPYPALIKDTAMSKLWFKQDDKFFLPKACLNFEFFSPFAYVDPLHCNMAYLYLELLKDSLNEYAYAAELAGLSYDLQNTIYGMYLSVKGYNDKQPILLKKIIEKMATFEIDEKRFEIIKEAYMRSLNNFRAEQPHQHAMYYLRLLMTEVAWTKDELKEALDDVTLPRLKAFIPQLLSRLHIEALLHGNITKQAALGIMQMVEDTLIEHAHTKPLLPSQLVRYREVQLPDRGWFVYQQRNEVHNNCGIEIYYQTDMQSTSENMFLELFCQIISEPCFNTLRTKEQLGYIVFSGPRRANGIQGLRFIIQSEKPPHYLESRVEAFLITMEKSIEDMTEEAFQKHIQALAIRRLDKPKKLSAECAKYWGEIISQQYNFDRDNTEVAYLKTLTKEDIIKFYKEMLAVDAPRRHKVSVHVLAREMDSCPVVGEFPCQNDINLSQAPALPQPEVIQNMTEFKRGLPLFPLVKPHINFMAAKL
The experiment in a line: Dose Response: Fluorescence polarization-based cell-based high throughput dose response assay for inhibitors of insulin-degrading enzyme (IDE). [Related pubchem assays: 434962 (Primary screen (IDE inhibitors in singlicate)), 449730 (Counterscreen (Cytotoxicity in triplicate)), 435028 (Confirmation (IDE inhibitors in triplicate)), 434984 (Summary …. The class given is functional. In general terms: Polarisation of emitted light reports the rotation of a fluorescent probe.

The next test concerns the target SUMO-activating enzyme (Homo sapiens, UniProt Q9UBT2). The experiment in a line: SUMOylation inhibitor hit validation, confirmation, SUMOylation inhibitor project, biochemical, AlphaScreen (AID 2018). The class given is functional. For orientation: Bead proximity is the source of the signal in Alpha formats.
The next test has as its target Prothrombin (Homo sapiens, UniProt P00734). The experiment in a line: Thrombin 1536 HTS Dose Response Confirmation. [Related pubchem assays: 1046 (Thrombin 1536 HTS; hits were confirmed in this assay)]. The class given is functional.
The target of test [17] is T6, Fatty acid synthase (Homo sapiens, UniProt P49327). Kind of test: FAS thioesterase domain inhibitors, dose response, biochemical, kinetic fluorescence intensity (AID 624326).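 Further: rate of fluorescence rise from hydrolysis of a fluorogenic O-methyl fluorescein ester substrate.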 The class given is functional.
Test [18] deals with T6, Fatty acid synthase. Kind of test: FAS thioesterase domain inhibitors, dose response, biochemical, endpoint fluorescence intensity, uHTS hits (AID 624327).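 Further: fluorescence from hydrolysis of an O-methyl fluorescein acyl ester substrate by the enzyme.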 Format: functional.
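Wherever Absolute IC50 (XBP1) is given: confirmatory dose-response counter-screen serving a CHOP assay.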

As a reminder, the EC50 is the concentration needed to bring the measured effect to its halfway point. As to `Cc1ccc(O)c(N/C=C/C(=O)c2ccc(F)cc2)c1`, the EC50 in test [1] was > 100 µM (inactive).
Usually IC50 stands for the point on the concentration scale where inhibition reaches its midpoint. Take `O=C1c2ccccc2C(=O)N1c1nnc(CCc2ccccc2)[nH]1`: the results for the IC50 in test [2] and in [3] were > 100 µM (not active) and 66.5 µM (active), respectively.
Regarding `O=C(C1CCCN(Cc2ccccc2F)C1)N1CCc2ccccc2C1` (centres undefined), the EC50 in the test “cells [4]” was > 350 µM (not active); in [5], 0.299 µM (active); in the test “cells [6]”, > 350 µM (not active).
In the case of `CCOC(=O)CSc1nc(C(C)C)nc2ccccc12`, the figures for the IC50 (in the test “cells [7]”; in test [8]; on Major prion protein) were > 138 µM (inactive), > 69.5 µM (not active) and 1.08 µM (active), respectively.
In the case of `Cc1ccc(C(C(=O)NC2CCCCC2)N(C(=O)Cc2c[nH]c3ccccc23)c2ccccc2C)o1` (centres undefined), the “Absolute IC50 (XBP1)” value on X-box-binding protein 1 turned out to be 10 µM.
Usually AC50 stands for the concentration giving half of the maximal activity seen. In the case of `CC(=O)OCCCNc1cc(Sc2ccc(Cl)cc2)c2nonc2c1[N+](=O)[O-]`, the AC50 in test [9] is 4.57 µM (active); in [10], 43.7 µM (active); in [11], 10.9 µM (active); in test [13] it was 1.14 µM (active); in test [14], 7.64 µM (active). Moreover, the EC50 was 11.3 µM (active) in test [12] and 13.1 µM (active) in test [15]. Further, on X-box-binding protein 1, the “Absolute IC50 (XBP1)” value turned out to be 10 µM.
For `COc1cc(/C=C2\SC(=S)N(NC(C)=O)C2=O)ccc1OC(=O)c1ccco1`, the IC50 in test [16] was > 55.7 µM (not active); at Insulin-degrading enzyme it was 5.78 µM (active).
In the case of `N#C/C(=C(/O)c1ccc(S(=O)(=O)N(CCCl)CCCl)cc1)c1nc2ccccc2[nH]1`, the IC50 on SUMO-activating enzyme is 73.8 µM (active).
For `CNCC(=O)N1CCN(c2ncc(C(F)(F)F)cc2Cl)CC1`, the EC50 in [5] is 0.105 µM (active).
On to `CCCC(=O)Nc1ccc2oc(-c3cncc(Br)c3)nc2c1`, for which the IC50 on SUMO-activating enzyme is 90.5 µM (active).
Regarding `CCn1cc(C(=O)NCc2ccco2)c(=O)c2cc(S(=O)(=O)N3CCCCCC3)ccc21`, the IC50 on Prothrombin is 14.7 µM (active); at Fatty acid synthase [17] it was 2.32 µM (active); on Fatty acid synthase [18] it was 2.96 µM (active).
`O=C(O)CC12CC3CC(C1)CC(n1ncc(NCc4ccccc4Cl)c(Cl)c1=O)(C3)C2`: the results for the IC50 (in test [16]; on Insulin-degrading enzyme) were > 55.7 µM (not active) and 9.59 µM (active), respectively.
As for `CC(=N)/C(C#N)=C(/O)CSc1nc2cc(Cl)ccc2s1`, at Prothrombin, the IC50 is given as > 50 µM (not active).
